Experimental findings from patent US9663508B2, “Biaryl acyl-sulfonamide compounds as sodium channel inhibitors” (AMGEN INC., priority 2013, dated 2017) are described below.

Like-named read-outs stand apart in the source and are kept apart here.

The target of this assay is human Nav1.7 (Homo sapiens (Human), UniProt Q15858). The experiment in a line: Nav 1.7 in vitro PatchXpress (PX) assay. It counts as cell-based.
human Nav1.7, sequence (Q15858 whole entry): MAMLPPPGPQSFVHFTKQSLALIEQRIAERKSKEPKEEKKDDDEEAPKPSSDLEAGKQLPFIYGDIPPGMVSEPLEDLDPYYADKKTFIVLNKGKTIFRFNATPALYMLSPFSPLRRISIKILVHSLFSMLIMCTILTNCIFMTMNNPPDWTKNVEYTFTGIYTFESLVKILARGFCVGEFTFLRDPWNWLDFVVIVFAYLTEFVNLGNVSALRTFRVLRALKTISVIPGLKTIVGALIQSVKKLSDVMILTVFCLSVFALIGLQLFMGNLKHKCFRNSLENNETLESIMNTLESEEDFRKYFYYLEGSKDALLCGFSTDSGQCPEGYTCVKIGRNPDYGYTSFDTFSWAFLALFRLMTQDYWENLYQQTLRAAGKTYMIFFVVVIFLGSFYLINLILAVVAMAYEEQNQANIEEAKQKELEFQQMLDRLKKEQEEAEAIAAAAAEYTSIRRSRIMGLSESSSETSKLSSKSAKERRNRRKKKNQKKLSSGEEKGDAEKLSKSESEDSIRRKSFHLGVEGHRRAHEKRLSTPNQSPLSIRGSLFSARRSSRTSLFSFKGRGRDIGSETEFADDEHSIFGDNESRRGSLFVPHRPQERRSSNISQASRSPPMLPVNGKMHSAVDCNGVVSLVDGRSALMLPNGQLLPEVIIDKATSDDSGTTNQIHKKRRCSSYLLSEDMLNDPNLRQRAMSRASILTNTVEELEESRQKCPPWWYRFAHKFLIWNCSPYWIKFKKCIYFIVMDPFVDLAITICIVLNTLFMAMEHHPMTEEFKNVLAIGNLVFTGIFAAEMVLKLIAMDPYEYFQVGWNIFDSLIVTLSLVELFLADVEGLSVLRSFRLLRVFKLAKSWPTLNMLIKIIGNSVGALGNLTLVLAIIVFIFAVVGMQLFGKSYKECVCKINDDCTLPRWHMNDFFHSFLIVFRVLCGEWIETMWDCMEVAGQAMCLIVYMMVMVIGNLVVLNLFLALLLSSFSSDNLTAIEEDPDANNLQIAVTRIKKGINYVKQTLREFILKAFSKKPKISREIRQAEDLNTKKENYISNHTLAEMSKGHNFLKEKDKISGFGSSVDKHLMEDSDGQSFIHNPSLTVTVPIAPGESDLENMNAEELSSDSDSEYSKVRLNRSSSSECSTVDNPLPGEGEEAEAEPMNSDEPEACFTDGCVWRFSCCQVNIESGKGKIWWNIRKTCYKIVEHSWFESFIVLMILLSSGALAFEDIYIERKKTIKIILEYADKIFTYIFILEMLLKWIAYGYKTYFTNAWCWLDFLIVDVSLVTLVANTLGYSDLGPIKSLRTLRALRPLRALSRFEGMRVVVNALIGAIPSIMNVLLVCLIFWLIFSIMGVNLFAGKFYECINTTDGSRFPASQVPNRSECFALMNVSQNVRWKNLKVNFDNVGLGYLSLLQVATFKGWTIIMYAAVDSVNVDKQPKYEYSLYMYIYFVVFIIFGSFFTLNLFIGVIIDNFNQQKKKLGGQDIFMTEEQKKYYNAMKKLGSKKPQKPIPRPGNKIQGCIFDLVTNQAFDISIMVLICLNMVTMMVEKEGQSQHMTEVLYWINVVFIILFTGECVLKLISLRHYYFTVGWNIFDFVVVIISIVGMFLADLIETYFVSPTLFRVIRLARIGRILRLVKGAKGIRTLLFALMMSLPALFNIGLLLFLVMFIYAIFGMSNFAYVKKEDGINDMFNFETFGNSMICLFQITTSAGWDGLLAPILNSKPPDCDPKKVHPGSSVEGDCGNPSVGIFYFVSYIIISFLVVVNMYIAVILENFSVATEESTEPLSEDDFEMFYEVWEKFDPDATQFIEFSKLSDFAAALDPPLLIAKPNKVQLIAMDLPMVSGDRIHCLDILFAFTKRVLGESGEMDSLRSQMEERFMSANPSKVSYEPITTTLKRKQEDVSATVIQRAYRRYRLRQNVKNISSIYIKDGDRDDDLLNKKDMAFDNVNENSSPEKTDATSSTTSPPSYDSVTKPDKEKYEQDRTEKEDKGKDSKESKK

Experimental: HEK 293 cells stably transfected with human Nav1.7 were recorded in whole cell voltage clamp mode with the PatchXpress automated electrophysiology system (Molecular Devices, LLC, Sunnyvale, Calif.). Compound effects were measured on a partially inactivated state of the sodium channel. Cells were clamped to a holding potential yielding 20 to 50% inactivation. To elicit sodium current, channels were activated by pulsing to −10 mV for 20 msec. This voltage protocol was repeated at a rate of 0.1 Hz throughout the experiment. A single concentration of test compound was applied to cells for a duration of 3 minutes. Peak sodium current was measured at the end of the compound addition period to determine percent inhibition. Three to five cells were tested per concentration, and IC50 curves were fitted to percent inhibition as a function of concentration.

Broadly, the IC50 is the concentration that gives 50% inhibition. A higher IC50 goes with weaker potency. The compound `COc1cc(C(=O)NS(C)(=O)=O)ccc1-c1cnc(Oc2cccc(F)c2F)c(Cl)c1` [Example 402, 4-(5-chloro-6-(2,3-difluorophenoxy)-3-pyridinyl)-3-methoxy-N-(methylsulfonyl)benzamide] displayed an IC50 of 80 nM. Turning to `CS(=O)(=O)NC(=O)c1cc(F)c(-c2cnc(Oc3c(Cl)cc(Cl)cc3Cl)c(Cl)c2)cc1F` [Example 568, 4-(5-chloro-6-(2,4,6-trichlorophenoxy)-3-pyridinyl)-2,5-difluoro-N-(methylsulfonyl)benzamide], inhibition was half-maximal at 48.5 nM (IC50). Turning to `Cc1cc(C(=O)NS(C)(=O)=O)c(F)cc1-c1cnc(-c2cc(F)cc(F)c2)c(Cl)c1` [Example 834, 4-(5-Chloro-6-(3,5-Difluorophenyl)-3-Pyridinyl)-2-Fluoro-5-Methyl-N-(Methylsulfonyl)Benzamide], 498 nM corresponded to half-maximal inhibition (in-vitro Nav 1.7 PX data) (IC50). Same read-out and setting: under `COc1cc(C(=O)NS(=O)(=O)N2CCC2)ccc1-c1cnc(Oc2cc(Cl)cc(Cl)c2)c(Cl)c1` [Example 773, N-(1-azetidinylsulfonyl)-4-(5-chloro-6-(3,5-dichlorophenoxy)-3-pyridinyl)-3-methoxybenzamide] stands 114 nM. In turn, `Cc1cc(C(=O)NS(C)(=O)=O)c(F)cc1-c1cnc(O[C@@H](c2ccccc2)C(F)(F)F)c(Cl)c1` [Example 684, 4-(5-chloro-6-((1S)-2,2,2-trifluoro-1-phenylethoxy)-3-pyridinyl)-2-fluoro-5-methyl-N-(methylsulfonyl)benzamide] yielded an IC50 of 94.1 nM. This counts as double-digit nanomolar.

The compound `COc1cc(C(=O)NS(C)(=O)=O)ccc1-c1cnc(Oc2ccc(Cl)cc2)c(Cl)c1` [Example 350, 4-(5-chloro-6-(4-chlorophenoxy)-3-pyridinyl)-3-methoxy-N-(methylsulfonyl)benzamide] displayed an IC50 of 92.6 nM. `COc1nccc(C)c1-c1cc(C(=O)NS(C)(=O)=O)ccc1-c1cnc(OCC(C)C)c(Cl)c1` [Example 820, 4-(5-Chloro-6-Isobutoxypyridin-3-yl)-3-(2-Methoxy-4-Methylpyridin-3-yl)-N-(Methylsulfonyl)Benzamide]: the “NAV 1.7 PX inhibition” value (at 5 µM (5 uM)) came to 23%. With `COc1cc(C(=O)NS(C)(=O)=O)c(F)cc1-c1cnc(Oc2ccc3ccccc3c2Cl)c(Cl)c1` [Example 717, 4-(5-chloro-6-((1-chloro-2-naphthalenyl)oxy)-3-pyridinyl)-2-fluoro-5-methoxy-N-(methylsulfonyl)benzamide], the IC50 (in-vitro Nav 1.7 PX data) was 99.3 nM. This counts as double-digit nanomolar.

As to `COc1cc(C(=O)NS(C)(=O)=O)ccc1-c1cnc(Oc2ccc(F)c(F)c2F)c(Cl)c1` [Example 357, 4-(5-chloro-6-(2,3,4-trifluorophenoxy)-3-pyridinyl)-3-methoxy-N-(methylsulfonyl)benzamide], half-maximal inhibition (IC50) required 88.2 nM. This counts as double-digit nanomolar. The same measure, in the same setting: under `CS(=O)(=O)NC(=O)c1ccc(-c2cnc(Oc3cccc(C(F)(F)F)c3)c(Cl)c2)c(OC(F)F)c1` [Example 456, 4-(5-chloro-6-(3-(trifluoromethyl)phenoxy)-3-pyridinyl)-3-(difluoromethoxy)-N-(methylsulfonyl)benzamide] stands 64 nM; under `Cc1cc(C(=O)NS(C)(=O)=O)c(F)cc1-c1cnc(Oc2ccc(F)cc2F)c(Cl)c1` [Example 603, 4-(5-chloro-6-(2,4-difluorophenoxy)-3-pyridinyl)-2-fluoro-5-methyl-N-(methylsulfonyl)benzamide], 143 nM.

On to `COc1cc(C(=O)NS(C)(=O)=O)c(F)cc1-c1cnc(Oc2ccc(C)c(F)c2F)c(Cl)c1` [Example 746, 4-(5-chloro-6-(2,3-difluoro-4-methylphenoxy)-3-pyridinyl)-2-fluoro-5-methoxy-N-(methylsulfonyl)benzamide], for which the IC50 (in-vitro Nav 1.7 PX data) was determined as 62.8 nM. This counts as double-digit nanomolar.

With `Cc1cc(C(=O)NS(=O)(=O)c2nccs2)c(F)cc1-c1cnc(OC2CCC2)c(Cl)c1` [Example 795, 4-(5-chloro-6-(cyclobutyloxy)-3-pyridinyl)-2-fluoro-5-methyl-N-(1,3-thiazol-2-ylsulfonyl)benzamide], for the setting “in-vitro Nav 1.7 PX data”, the IC50 was 57.1 nM.

`COc1cc(C(=O)NS(C)(=O)=O)ccc1-c1cnc(Oc2ccc3c(c2)CCC3)c(Cl)c1` [Example 580, 4-(5-chloro-6-(2,3-dihydro-1H-inden-5-yloxy)-3-pyridinyl)-3-methoxy-N-(methylsulfonyl)benzamide] showed an IC50 of 66.1 nM. Same read-out and setting: under `COc1cc(C(=O)NS(C)(=O)=O)ccc1-c1cnc(Oc2cccc(Cl)c2Cl)c(Cl)c1` [Example 583, 4-(5-Chloro-6-(2,3-Dichlorophenoxy)Pyridin-3-yl)-3-Methoxy-N-(Methylsulfonyl)Benzamide] stands 30.5 nM. Regarding `COc1cc(C(=O)NS(C)(=O)=O)c(F)cc1-c1cnc(N[C@@H]2CCC23CCC3)c(Cl)c1` [Example 722, 4-(5-chloro-6-((1R)-spiro[3.3]hept-1-ylamino)-3-pyridinyl)-2-fluoro-5-methoxy-N-(methylsulfonyl)benzamide, 4-(5-chloro-6-((1S)-spiro[3.3]hept-1-ylamino)-3-pyridinyl)-2-fluoro-5-methoxy-N-(methylsulfonyl)benzamide], the IC50 (in-vitro Nav 1.7 PX data) was 110 nM. `COc1cc(C(=O)NS(C)(=O)=O)ccc1-c1cnc(Oc2cc(F)ccc2Cl)c(Cl)c1` [Example 371, 4-(5-chloro-6-(2-chloro-5-fluorophenoxy)-3-pyridinyl)-3-methoxy-N-(methylsulfonyl)benzamide] had an IC50 of 80 nM. For `COc1cc(C(=O)NS(C)(=O)=O)c(F)cc1-c1cnc(O[C@@H]2CCC[C@H]2C)c(Cl)c1` [Example 727, 4-(5-chloro-6-(((1R,2R)-2-methylcyclopentyl)oxy)-3-pyridinyl)-2-fluoro-5-methoxy-N-(methylsulfonyl)benzamide], it took 102 nM to reach half-maximal inhibition (in-vitro Nav 1.7 PX data) (IC50). On the same count and under the same terms, for `COc1cc(C(=O)NS(C)(=O)=O)c(F)cc1-c1cnc(Oc2cccc(Cl)c2F)c(Cl)c1` [Example 745, 4-(5-chloro-6-(3-chloro-2-fluorophenoxy)-3-pyridinyl)-2-fluoro-5-methoxy-N-(methylsulfonyl)benzamide] the value was 72.5 nM. On the same count and under the same terms, under `CC[C@@H](Oc1ncc(-c2cc(F)c(C(=O)NS(C)(=O)=O)cc2OC)cc1Cl)C(F)(F)F` [Example 736, 4-(5-chloro-6-(((1R)-1-(trifluoromethyl)propyl)oxy)-3-pyridinyl)-2-fluoro-5-methoxy-N-(methylsulfonyl)benzamide] stands 84 nM; under `Cc1cc(C(=O)NS(C)(=O)=O)c(F)cc1-c1cnc(Oc2cc(Cl)cc(Cl)c2)c(C(F)F)c1` [Example 823, 4-(6-(3,5-Dichlorophenoxy)-5-(Difluoromethyl)Pyridin-3-yl)-2-Fluoro-5-Methyl-N-(Methyl Sulfonyl)Benzamide], 179 nM; under `CS(=O)(=O)NC(=O)c1cc(OC(F)F)c(-c2cnc(OCc3ccc(Cl)cc3)c(Cl)c2)cc1F` [Example 786, 4-(5-chloro-6-((4-chlorobenzyl)oxy)-3-pyridinyl)-5-(difluoromethoxy)-2-fluoro-N-(methylsulfonyl)benzamide], 55.6 nM. Still for that read-out and setting: for `Cc1cc(C(=O)NS(C)(=O)=O)c(F)cc1-c1ccc(OCC(F)(F)F)cc1` [Example 810, 5-fluoro-2-methyl-N-(methylsulfonyl)-4′-(2,2,2-trifluoroethoxy)-4-biphenylcarboxamide] the value was 4020 nM; for `COc1nccc(C)c1-c1cc(C(=O)NS(C)(=O)=O)ccc1-c1cnc(OCC(C)C)c(Cl)c1` (single isomer, unassigned) [Example 821, 4-(5-Chloro-6-Isobutoxypyridin-3-yl)-3-(2-Methoxy-4-Methylpyridin-3-yl)-N-(Methylsulfonyl)Benzamide], 32000 nM.
